Measurements as given in patent US20080219917A1, “HARMONIZED WATER AND AQUEOUS SOLUTIONS” (DVB GLOBAL, priority 2007, published 2008).

Columns and labels:
Salmonella typhimurium = Salmonella typhimurium reverse mutation assay (AMES test); format: cell-based
Text: Toxicity test for harmonized, Modified Fullerenes has shown this substance is not cytotoxic when the material is subjected to a Salmonella typhimurium reverse mutation assay (AMES test). The Ames test is used to determine any potential mutagenic activity of the test HMF material. The HMF material was exposed to a large number of test organism in an agar plate. The agar plates were monitored for growth of revertants (organisms mutating to the wild type). The number of wild type organisms are counted to estimate the mutagenic potential of the HMF material.

[1] = test system: human dermal fibroblasts, human liver carcinoma cells (HepG2), and neuronal human astrocytes; conditions: same experiments (Sayes, 2004); cited from earlier work

Substance | cytotoxicity (Salmonella typhimurium; Toxicity test, AMES test) | mutagenic potential (growth of revertants) (Salmonella typhimurium; agar plate) | cytotoxicity [1]
[C60(OH)10-36]^Φ/φ [HMF] | not cytotoxic | not mutagenic | 
C60(OH)24 [Modified Fullerenes] |  |  | no cytotoxicity
